Results from ChEMBL document CHEMBL1201862, “PubChem BioAssay data set” (2004).
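Dose response: 5 concentrations. Exposure: 48 h. Format: 96-well plates. Endpoint: linear interpolation; highest concentration if not reached. GI50 = concentration required for 50% inhibition of growth.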 The source made the active and inactive calls. No stated cut-off is given here; in the data, active = GI50 up to about 1.1 µM and inactive = higher.

Experiments:
Assay in all cases: NCI anticancer screen, dose series, 48 h
A549 = test system: A549
BT-549 = test system: BT-549
CAKI-1 = test system: CAKI-1
EKVX = test system: EKVX
HCC 2998 = test system: HCC 2998
HCT-116 = test system: HCT-116
Hs-578T = test system: Hs-578T
M14 = test system: M14
MDA-MB-231 = test system: MDA-MB-231
MDA-MB-435 = test system: MDA-MB-435
MDA-N = test system: MDA-N
NCI-H23 = test system: NCI-H23
OVCAR-3 = test system: OVCAR-3
OVCAR-8 = test system: OVCAR-8
SF-268 = test system: SF-268
SK-MEL-2 = test system: SK-MEL-2
SNB-75 = test system: SNB-75
SW-620 = test system: SW-620
UO-31 = test system: UO-31

Measured: GI50

CCN(C(=O)/C=C/c1ccco1)c1ccccc1
inactive: A549 > 100 µM | BT-549 > 100 µM | CAKI-1 > 100 µM | EKVX > 100 µM | HCC 2998 > 100 µM | HCT-116 > 100 µM | Hs-578T > 100 µM | M14 > 100 µM | MDA-MB-231 > 100 µM | MDA-MB-435 > 100 µM | MDA-N > 100 µM | NCI-H23 > 100 µM | OVCAR-3 > 100 µM | OVCAR-8 > 100 µM | SF-268 > 100 µM | SK-MEL-2 > 100 µM | SNB-75 > 100 µM | SW-620 > 100 µM | UO-31 > 100 µM

CC[C@]1(Cc2ccc(OC)c(OC)c2)C=[N+]([O-])O[C@H](OC2CCCC2(c2ccccc2)c2ccccc2)[C@@H]1OC(=O)c1ccccc1 (stereo not given in full)
inactive: A549 5.92 µM | BT-549 > 27.1 µM | CAKI-1 > 100 µM | EKVX 3.86 µM | HCC 2998 9.71 µM | HCT-116 4.51 µM | Hs-578T > 100 µM | M14 8.13 µM | MDA-MB-231 > 24.9 µM | MDA-MB-435 3.73 µM | MDA-N 8.17 µM | NCI-H23 6.37 µM | OVCAR-3 3.15 µM | OVCAR-8 3.71 µM | SF-268 28.7 µM | SK-MEL-2 8 µM | SNB-75 6.62 µM | SW-620 8.87 µM | UO-31 6.7 µM

CC1CCN(CC(=O)N2c3ccccc3Sc3cc4ccccc4cc32)CC1
inactive: A549 > 100 µM | BT-549 > 100 µM | CAKI-1 > 100 µM | EKVX > 100 µM | HCC 2998 67.6 µM | HCT-116 49.7 µM | Hs-578T > 100 µM | M14 > 100 µM | MDA-MB-231 > 100 µM | MDA-MB-435 > 100 µM | MDA-N > 100 µM | NCI-H23 > 100 µM | OVCAR-3 > 100 µM | OVCAR-8 > 100 µM | SF-268 > 100 µM | SK-MEL-2 > 100 µM | SNB-75 > 100 µM | SW-620 > 100 µM | UO-31 > 100 µM

C=C1C(=O)O[C@@H]2CC(CO)=C([C@@H](C)CCCO)[C@@H](OC(=O)/C(C)=C\C)[C@H]12
inactive: A549 21.6 µM | BT-549 14.6 µM | CAKI-1 22.1 µM | EKVX 13.7 µM | HCC 2998 15.3 µM | HCT-116 8.07 µM | Hs-578T 21.1 µM | M14 23.5 µM | MDA-MB-231 24.9 µM | MDA-MB-435 15.8 µM | MDA-N 15.1 µM | NCI-H23 13.3 µM | OVCAR-3 7.64 µM | OVCAR-8 20.6 µM | SF-268 15.6 µM | SK-MEL-2 20.9 µM | SNB-75 27.2 µM | SW-620 14.7 µM | UO-31 16.8 µM

N#CC(NC12CC3CC(CC(C3)C1)C2)c1ccc2c(c1)OCO2 (stereo not given)
inactive: A549 > 100 µM | BT-549 > 100 µM | CAKI-1 > 100 µM | EKVX > 100 µM | HCC 2998 > 100 µM | HCT-116 > 100 µM | Hs-578T > 100 µM | M14 > 100 µM | MDA-MB-231 > 100 µM | MDA-MB-435 > 100 µM | MDA-N > 100 µM | NCI-H23 > 100 µM | OVCAR-3 > 100 µM | OVCAR-8 > 100 µM | SF-268 > 100 µM | SK-MEL-2 > 100 µM | SNB-75 > 100 µM | SW-620 > 100 µM | UO-31 > 100 µM
